This note sets out measurements from patent publication US8993616B2, “(aza)indole derivative and use thereof for medical purposes” (Kissei Pharmaceutical Co., Ltd., priority 2007, dated 2015).

Chain of Xanthine oxidase (from bovine milk, Sigma) (P80457 whole entry): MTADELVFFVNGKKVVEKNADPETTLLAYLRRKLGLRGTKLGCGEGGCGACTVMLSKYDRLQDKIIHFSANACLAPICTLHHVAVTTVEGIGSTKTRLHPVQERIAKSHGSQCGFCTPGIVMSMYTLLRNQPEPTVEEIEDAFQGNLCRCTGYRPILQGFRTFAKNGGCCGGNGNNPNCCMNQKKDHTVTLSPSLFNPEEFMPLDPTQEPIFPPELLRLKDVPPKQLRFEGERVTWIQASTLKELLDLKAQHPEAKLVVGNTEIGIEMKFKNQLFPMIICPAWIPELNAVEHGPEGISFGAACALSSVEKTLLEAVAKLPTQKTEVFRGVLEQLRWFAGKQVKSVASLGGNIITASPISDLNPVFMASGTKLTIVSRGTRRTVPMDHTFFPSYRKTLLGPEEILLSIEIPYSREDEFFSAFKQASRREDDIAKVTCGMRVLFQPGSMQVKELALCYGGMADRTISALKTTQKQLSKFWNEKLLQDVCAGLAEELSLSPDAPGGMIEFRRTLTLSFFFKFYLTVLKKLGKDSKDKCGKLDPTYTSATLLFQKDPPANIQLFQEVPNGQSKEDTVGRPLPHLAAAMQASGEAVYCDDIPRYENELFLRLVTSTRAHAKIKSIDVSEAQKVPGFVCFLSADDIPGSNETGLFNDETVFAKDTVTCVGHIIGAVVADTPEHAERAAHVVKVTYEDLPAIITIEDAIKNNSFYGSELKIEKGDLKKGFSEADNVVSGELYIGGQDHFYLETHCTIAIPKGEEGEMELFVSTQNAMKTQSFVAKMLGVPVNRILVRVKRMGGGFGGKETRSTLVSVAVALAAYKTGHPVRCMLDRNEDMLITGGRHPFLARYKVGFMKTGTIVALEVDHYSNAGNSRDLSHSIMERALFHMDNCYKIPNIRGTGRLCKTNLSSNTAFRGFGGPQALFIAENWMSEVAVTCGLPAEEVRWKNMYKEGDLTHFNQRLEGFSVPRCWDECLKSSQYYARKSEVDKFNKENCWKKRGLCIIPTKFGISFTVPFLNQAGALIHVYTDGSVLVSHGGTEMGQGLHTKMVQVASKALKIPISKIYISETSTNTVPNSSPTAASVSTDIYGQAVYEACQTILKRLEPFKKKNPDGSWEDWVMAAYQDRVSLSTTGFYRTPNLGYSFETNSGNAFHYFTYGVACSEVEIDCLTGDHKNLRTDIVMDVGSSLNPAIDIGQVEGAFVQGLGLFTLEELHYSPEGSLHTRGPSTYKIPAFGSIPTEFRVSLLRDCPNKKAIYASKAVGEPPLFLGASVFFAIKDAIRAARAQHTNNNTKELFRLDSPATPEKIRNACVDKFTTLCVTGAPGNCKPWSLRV

This test addresses Xanthine oxidase (from bovine milk, Sigma) (Bos taurus (Bovine), UniProt P80457). Description: Xanthine oxidase inhibitory activity. Type of test: biochemical. To be noted: xanthine substrate, 10 minutes at room temperature, absorbance at 290 nm. On the procedure: (1) Preparation of Test Compounds
Test compounds were dissolved in DMSO (Wako) at 40 mM concentration and then diluted to intended concentrations with phosphate-buffered saline (PBS).
(2) Method for Measurement
Xanthine oxidase (from bovine milk, Sigma) was prepared with phosphate-buffered saline (PBS) at 0.02 units/mL, and then the solution was added to 96 well plates at 50 μL/well. In addition, test compounds diluted with PBS were added at 50 μL/well. Xanthine (Wako) at 200 μM prepared with PBS was added at 100 μL/well, and the reaction was conducted for 10 minutes at room temperature. Absorbance at 290 nm was measured using a microplate reader SpectraMax Plus 384 (Molecular device). The absorbance under a condition without xanthine is 0%, and control without test compounds is 100%. Fifty % inhibitory concentration of a test compound (IC50) was calculated (Table 60). Ex. No in the table indicates Example number.
Consider `N#Cc1cn(-c2ccc(C(=O)O)c(O)c2)c2cc(OCCOc3ccccc3)ccc12` [Example 222], for which 41.8 nM corresponded to half-maximal inhibition (IC50).

Regarding `COc1ccccc1-c1ccc2c(c1)c(C#N)cn2-c1ccc(C(=O)O)cc1` [Example 157], the concentration for half-maximal inhibition (IC50) (usually the concentration needed to halve the response being measured) was 14.1 nM. `N#Cc1cn(-c2ccc(C(=O)O)cc2)c2ccc(-c3ccc(O)c(Cl)c3)cc12` [Example 179] came in with an IC50 of 8 nM. `N#Cc1cn(-c2ccc(C(=O)O)c(O)c2)c2cc(OCC3CC3)ccc12` [Example 233] returned an IC50 of 7.2 nM. Regarding `N#Cc1cn(-c2ccc(C(=O)O)c(O)c2)c2ccc(OCc3ccccc3)cc12` [Example 200], the midpoint of inhibition, the IC50, lay at 39.4 nM. In turn, `COc1c(C)cc2c(c(C#N)cn2-c2ccc(C(=O)O)cc2)c1C` [Example 288] came in with an IC50 of 10 nM. Turning to `CC(=O)c1ccc(-c2ccc3c(c2)c(C#N)cn3-c2ccc(C(=O)O)cc2)cc1` [Example 166], the IC50 is 7.2 nM. As to `N#Cc1cn(-c2ccc(C(=O)O)cc2)c2ccc(OCCOCc3ccccc3)cc12` [Example 175], the midpoint of inhibition, the IC50, lay at 22.2 nM.

In the case of `N#Cc1cn(-c2ccc(C(=O)O)cc2)c2ccc(OCc3ccccc3)cc12` [Example 151], inhibition was half-maximal at 22.4 nM (IC50). With `N#Cc1cn(-c2ccc(C(=O)O)c(O)c2)c2cc(C(F)(F)F)ccc12` [Example 195] the figure was 14.5 nM; with `N#Cc1cn(-c2ccc(C(=O)O)c(O)c2)c2cc(OCc3cccc(Cl)c3)ccc12` [Example 231], 29.1 nM; with `N#Cc1cn(-c2ccc(C(=O)O)cc2)c2ccc(O)cc12` [Example 152], 15.8 nM. `Cc1ccc2c(c1)c(C#N)cn2-c1ccc(C(=O)O)cn1` [Example 143]: half-maximal inhibition (IC50) was put at 24.4 nM. Consider `Cc1cc2c(C#N)cn(-c3ccc(C(=O)O)cc3)c2cc1Cl` [Example 295], for which the half-maximal inhibitory concentration (IC50) turned out to be 9 nM.

`N#Cc1cn(-c2ccc(C(=O)O)cc2)c2ccc(OCc3cccs3)cc12` [Example 27, 4-[3-Cyano-5-(thiophen-2-ylmethyloxy)indol-1-yl]benzoic acid] returned an IC50 of 14.6 nM. As for `CN(C)CCOc1ccc2c(C#N)cn(-c3ccc(C(=O)O)c(O)c3)c2c1` [Example 235], the figure is 14.2 nM. Compound `CN(C)C(=O)c1ccc2c(c1)c(C#N)cn2-c1ccc(C(=O)O)cc1` [Example 34, 4-(3-Cyano-5-dimethylaminocarbonylindol-1-yl)benzoic acid] yielded an IC50 of 48.3 nM.

As to `Cc1ccc2c(c1)c(C#N)cn2-c1ccc(C(=O)O)c(O)c1` [Example 189], the IC50 is 13.9 nM. `COCCOc1ccc2c(c1)c(C#N)cn2-c1ccc(C(=O)O)cc1` [Example 153] showed an IC50 of 12.2 nM.

Regarding `N#Cc1cn(-c2ccc(C(=O)O)cc2)c2ccc(-c3ccncc3)cc12` [Example 159], the IC50 is 14.4 nM.

In turn, `COc1cc2c(C#N)cn(-c3ccc(C(=O)O)cc3)c2cc1Cl` [Example 293] showed an IC50 of 14 nM. `N#Cc1cn(-c2ccc(C(=O)O)cc2)c2ccc(OCc3ccsc3)cc12` [Example 176]: the midpoint of inhibition, the IC50, lay at 18.3 nM. For `N#Cc1cn(-c2ccc(C(=O)O)cc2)c2ccc(CO)cc12` [Example 32, 4-(3-Cyano-5-hydroxymethylindol-1-yl)benzoic acid], the IC50 was 91.1 nM. Compound `Cc1nc(-n2cc(C#N)c3ccccc32)sc1C(=O)O` [Example 47, 2-(3-Cyanoindol-1-yl)-4-methylthiazole-5-carboxylic acid] registered an IC50 of 58.6 nM. `N#Cc1cn(-c2ccc(C(=O)O)cc2)c2ccc(C(=O)NCc3ccccc3)cc12` [Example 160] gave an IC50 of 11.3 nM. With `Cc1ccc2c(c1)c(C#N)cn2-c1nc(C)c(C(=O)O)s1` [Example 187] the figure was 16.4 nM; with `COCOc1cc(-n2cc(C#N)c3ccccc32)ccc1C(=O)O` [Example 308], 45 nM; with `N#Cc1cn(-c2ccc(C(=O)O)cc2)c2ccc(OCC(=O)O)cc12` [Example 170], 20 nM. `N#Cc1cn(-c2ccc(C(=O)O)c(O)c2)c2ccc(OCCO)cc12` [Example 210] displayed an IC50 of 7 nM.

In turn, `CN(C)c1cc2c(C#N)cn(-c3ccc(C(=O)O)cc3)c2cc1C(F)(F)F` [Example 300] showed an IC50 of 96 nM. For `N#Cc1cn(-c2ccc(C(=O)O)c(N)c2)c2ccccc12` [Example 42, 2-Amino-4-(3-cyanoindol-1-yl)benzoic acid], half-maximal inhibition (IC50) required 175 nM. For `CCOc1ccc2c(C#N)cn(-c3ccc(C(=O)O)c(O)c3)c2c1` [Example 223], inhibition was half-maximal at 7.5 nM (IC50). In turn, `CC(C)(C)OC(=O)NCCCOc1ccc2c(c1)c(C#N)cn2-c1ccc(C(=O)O)cc1` [Example 180] came in with an IC50 of 29 nM.

Compound `COc1cc2c(C#N)cn(-c3ccc(C(=O)O)cc3)c2cc1F` [Example 287] gave an IC50 of 16 nM. For `N#Cc1ccc2c(C#N)cn(-c3ccc(C(=O)O)c(O)c3)c2c1` [Example 207], the IC50 was 7.3 nM.

The compound `CC(=O)NCCCOc1ccc2c(C#N)cn(-c3ccc(C(=O)O)c(O)c3)c2c1` [Example 239] showed an IC50 of 6.5 nM.

In turn, `N#Cc1cn(-c2ccc(C(=O)O)c(O)c2)c2cc(OCC(=O)O)ccc12` [Example 216] showed an IC50 of 7.4 nM.

As for `N#Cc1cn(-c2ccc(C(=O)O)c(O)c2)c2c(F)cccc12` [Example 318], the IC50 turned out to be 12 nM. For the compound `CN(C)CCCOc1ccc2c(C#N)cn(-c3ccc(C(=O)O)c(O)c3)c2c1` [Example 226], it took 10 nM to reach half-maximal inhibition (IC50). Compound `N#Cc1cn(-c2ccc(C(=O)O)c(O)c2)c2cc(OCc3ccccc3)ccc12` [Example 5, 4-(6-Benzyloxy-3-cyanoindol-1-yl)-2-hydroxybenzoic acid] displayed a concentration for half-maximal inhibition (IC50) of 33.6 nM. As for `N#Cc1cn(-c2ccc(C(=O)O)cc2)c2ccc(C(=O)O)cc12` [Example 29, 4-(5-Carboxy-3-cyanoindol-1-yl)benzoic acid], the figure is 43.3 nM. `COCCOc1ccc2c(C#N)cn(-c3ccc(C(=O)O)cc3)c2c1` [Example 185] yielded an IC50 of 40.2 nM.

The compound `CCOCCOc1ccc2c(c1)c(C#N)cn2-c1ccc(C(=O)O)cc1` [Example 174] yielded an IC50 of 24.4 nM. `N#Cc1cn(-c2ccc(C(=O)O)c(O)c2)c2cc(OCCN)ccc12` [Example 9, 4-[6-(2-Aminoethyloxy)-3-cyanoindol-1-yl]-2-hydroxybenzoic acid] gave an IC50 of 12.5 nM. Compound `Cc1cc2c(C#N)cn(-c3ccc(C(=O)O)cn3)c2cc1F` [Example 307] gave an IC50 of 13 nM. Regarding `N#Cc1cn(-c2ccc(C(=O)O)c(O)c2)c2cc(-c3ccccc3)ccc12` [Example 199], the IC50 was 49.2 nM. `N#Cc1cn(-c2ccc(C(=O)O)cc2)c2ccc(OCCCO)cc12` [Example 172] returned an IC50 of 8 nM. `N#Cc1cn(-c2ccc(C(=O)O)cc2)c2cc(CO)ccc12` [Example 184]: the IC50 amounted to 138 nM.

In turn, `N#Cc1cn(-c2ccc(C(=O)O)c(O)c2)c2cc(OCCNC(=O)OCc3ccccc3)ccc12` [Example 8, 4-[6-(2-Benzyloxycarbonylaminoethyloxy)-3-cyanoindol-1-yl]-2-hydroxybenzoic acid] yielded an IC50 of 41.5 nM.

`N#Cc1cn(-c2ccc(C(=O)O)c(O)c2)c2cc(OCc3ccccc3Cl)ccc12` [Example 230] came in with an IC50 of 67.1 nM. For the compound `CCOCCOc1ccc2c(C#N)cn(-c3ccc(C(=O)O)c(O)c3)c2c1` [Example 219], the IC50 worked out at 8.3 nM. With `N#Cc1cn(-c2ccc(C(=O)O)cc2)c2ccc(OCCO)cc12` [Example 171] the figure was 10.9 nM; with `N#Cc1cn(-c2ccc(C(=O)O)c(O)c2)c2cc(OCCCN)ccc12` [Example 227], 10.4 nM; with `COCCOc1ccc2c(c1)c(C#N)cn2-c1ccc(C(=O)O)c(O)c1` [Example 211], 6.2 nM.

`N#Cc1cn(-c2ccc(C(=O)O)cc2)c2ccc(-c3cccs3)cc12` [Example 158]: half-maximal inhibition (IC50) required 9.5 nM.

The compound `CN(C)CCCOc1ccc2c(c1)c(C#N)cn2-c1ccc(C(=O)O)cc1` [Example 177] displayed an IC50 of 16.4 nM. Compound `N#Cc1cn(-c2ccc(C(=O)O)cc2)c2cccc(-c3ccccc3)c12` [Example 286] yielded an IC50 of 58 nM. Take `N#Cc1cn(-c2ccc(C(=O)O)c(O)c2)c2cc(OCCCCO)ccc12` [Example 229]: inhibition was half-maximal at 7.1 nM (IC50). Consider `N#Cc1cn(-c2ccc(C(=O)O)c(O)c2)c2cccc(F)c12` [Example 225], for which inhibition was half-maximal at 4.6 nM (IC50). As to `COCCNC(=O)c1ccc2c(c1)c(C#N)cn2-c1ccc(C(=O)O)cc1` [Example 162], the IC50 came to 16.5 nM. With `COCCOc1ccc2c(C#N)cn(-c3ccc(C(=O)O)c(O)c3)c2c1` [Example 215] the figure was 10.5 nM; with `N#Cc1cn(-c2ccc(C(=O)O)c(O)c2)c2ccc(-c3ccccc3)cc12` [Example 198], 54.6 nM; with `Cc1cc2c(C#N)cn(-c3ccc(C(=O)O)cc3)c2cc1F` [Example 298], 12 nM. Take `N#Cc1cn(-c2ccc(C(=O)O)cc2)c2ccc(-c3ccccc3)cc12` [Example 150]: it took 20.6 nM to reach half-maximal inhibition (IC50).

`CS(=O)(=O)NCCCOc1ccc2c(C#N)cn(-c3ccc(C(=O)O)c(O)c3)c2c1` [Example 240] came in with an IC50 of 9.8 nM. For `N#Cc1cn(-c2ccc(C(=O)O)c(O)c2)c2cc(Cl)ccc12` [Example 190], the IC50 worked out at 5.4 nM. Compound `COc1cccc(-c2ccc3c(c2)c(C#N)cn3-c2ccc(C(=O)O)cc2)c1` [Example 156] registered an IC50 of 11.9 nM. `CS(=O)(=O)c1ccc(COc2ccc3c(c2)c(C#N)cn3-c2ccc(C(=O)O)cc2)cc1` [Example 178] displayed an IC50 of 12.9 nM. For the compound `N#Cc1cn(-c2ccc(C(=O)O)cc2)c2cc(-c3ccccc3)ccc12` [Example 155], the IC50 stood at 112 nM.
